Experimental findings from ChEMBL document CHEMBL5291721, “A preclinical secondary pharmacology resource illuminates target-adverse drug reaction associations of marketed drugs” (Nat Commun, 2023) are described below.

The AC50 is the concentration at which the activity in the assay is half-maximal. Read a low AC50 as greater potency.

A value given as a limit tells only on which side of the number the result lay.

Assay [1] deals with cGMP-inhibited 3',5'-cyclic phosphodiesterase 3A (Homo sapiens, UniProt Q14432). In kind it is functional.
Chain of cGMP-inhibited 3',5'-cyclic phosphodiesterase 3A (Q14432 whole entry): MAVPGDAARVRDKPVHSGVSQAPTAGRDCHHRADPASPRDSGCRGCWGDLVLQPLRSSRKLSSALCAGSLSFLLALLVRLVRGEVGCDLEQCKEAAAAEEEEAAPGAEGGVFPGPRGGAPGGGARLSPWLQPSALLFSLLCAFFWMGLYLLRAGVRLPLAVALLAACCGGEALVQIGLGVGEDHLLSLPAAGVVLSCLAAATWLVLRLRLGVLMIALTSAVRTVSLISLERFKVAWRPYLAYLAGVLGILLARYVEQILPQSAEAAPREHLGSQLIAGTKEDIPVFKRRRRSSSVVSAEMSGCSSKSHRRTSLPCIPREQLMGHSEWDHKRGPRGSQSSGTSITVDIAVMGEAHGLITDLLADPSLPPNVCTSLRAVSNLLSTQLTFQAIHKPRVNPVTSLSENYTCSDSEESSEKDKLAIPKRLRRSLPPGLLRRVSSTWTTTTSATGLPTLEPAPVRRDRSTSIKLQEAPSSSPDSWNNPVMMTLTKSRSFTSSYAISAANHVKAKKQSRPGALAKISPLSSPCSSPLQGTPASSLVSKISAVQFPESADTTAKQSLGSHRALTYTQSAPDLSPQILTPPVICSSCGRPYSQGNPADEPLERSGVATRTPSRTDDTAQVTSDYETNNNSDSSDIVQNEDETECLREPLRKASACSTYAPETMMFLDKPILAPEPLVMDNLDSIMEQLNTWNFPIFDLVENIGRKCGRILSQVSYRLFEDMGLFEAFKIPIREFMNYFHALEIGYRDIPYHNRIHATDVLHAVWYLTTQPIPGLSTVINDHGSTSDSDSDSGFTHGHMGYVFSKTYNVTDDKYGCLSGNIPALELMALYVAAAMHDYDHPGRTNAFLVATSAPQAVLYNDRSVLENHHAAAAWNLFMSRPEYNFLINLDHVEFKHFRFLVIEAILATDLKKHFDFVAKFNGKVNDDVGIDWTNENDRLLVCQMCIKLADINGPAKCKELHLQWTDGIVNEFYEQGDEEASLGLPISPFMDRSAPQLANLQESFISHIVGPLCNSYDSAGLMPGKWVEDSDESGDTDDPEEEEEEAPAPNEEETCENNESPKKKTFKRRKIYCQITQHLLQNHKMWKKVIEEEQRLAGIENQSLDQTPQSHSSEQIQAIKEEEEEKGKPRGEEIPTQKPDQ
Assay [2] has as its target T1, Glucocorticoid receptor (Homo sapiens, UniProt P04150).
T1 sequence (P04150 whole entry): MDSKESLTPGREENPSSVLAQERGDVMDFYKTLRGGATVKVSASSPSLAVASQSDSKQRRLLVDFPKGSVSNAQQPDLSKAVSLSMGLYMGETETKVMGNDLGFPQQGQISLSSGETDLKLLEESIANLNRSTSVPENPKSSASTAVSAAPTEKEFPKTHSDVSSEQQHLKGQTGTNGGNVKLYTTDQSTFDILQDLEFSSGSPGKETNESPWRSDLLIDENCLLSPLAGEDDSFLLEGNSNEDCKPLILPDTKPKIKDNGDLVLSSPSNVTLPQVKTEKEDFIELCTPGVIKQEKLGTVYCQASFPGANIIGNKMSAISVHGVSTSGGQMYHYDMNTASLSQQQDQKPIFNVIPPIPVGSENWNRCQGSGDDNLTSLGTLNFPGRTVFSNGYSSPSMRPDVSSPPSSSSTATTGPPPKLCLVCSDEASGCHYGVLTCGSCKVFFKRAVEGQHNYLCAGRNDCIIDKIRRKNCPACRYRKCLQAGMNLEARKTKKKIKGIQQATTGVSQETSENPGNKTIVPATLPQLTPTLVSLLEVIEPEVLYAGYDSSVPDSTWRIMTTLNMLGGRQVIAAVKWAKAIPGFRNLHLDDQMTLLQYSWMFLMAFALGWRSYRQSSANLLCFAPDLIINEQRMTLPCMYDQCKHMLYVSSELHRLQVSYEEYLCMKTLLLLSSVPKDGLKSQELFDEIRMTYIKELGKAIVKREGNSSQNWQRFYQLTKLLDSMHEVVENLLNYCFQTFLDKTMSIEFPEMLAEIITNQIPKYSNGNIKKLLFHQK

Assay [3] deals with Sodium-dependent serotonin transporter (Homo sapiens, UniProt P31645).
Chain of Sodium-dependent serotonin transporter (P31645 whole entry): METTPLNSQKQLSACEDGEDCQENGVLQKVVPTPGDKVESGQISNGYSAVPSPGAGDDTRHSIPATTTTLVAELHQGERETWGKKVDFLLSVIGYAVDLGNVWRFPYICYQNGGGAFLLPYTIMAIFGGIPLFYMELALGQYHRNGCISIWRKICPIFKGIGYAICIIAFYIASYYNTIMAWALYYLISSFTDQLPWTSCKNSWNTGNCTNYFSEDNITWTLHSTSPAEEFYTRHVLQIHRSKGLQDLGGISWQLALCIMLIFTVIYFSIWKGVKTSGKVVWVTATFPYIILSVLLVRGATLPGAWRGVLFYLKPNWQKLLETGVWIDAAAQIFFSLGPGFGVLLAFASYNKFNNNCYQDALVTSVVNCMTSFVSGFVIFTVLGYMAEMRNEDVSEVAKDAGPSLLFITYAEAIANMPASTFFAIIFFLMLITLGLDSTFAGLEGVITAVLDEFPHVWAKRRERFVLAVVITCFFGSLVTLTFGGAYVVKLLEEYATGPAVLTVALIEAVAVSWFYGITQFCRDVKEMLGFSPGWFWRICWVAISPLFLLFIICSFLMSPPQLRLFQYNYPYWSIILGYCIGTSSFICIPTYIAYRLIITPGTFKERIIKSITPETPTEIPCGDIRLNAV
The target of assay [4] is T2, Muscarinic acetylcholine receptor M2 (Homo sapiens, UniProt P08172).
T2 sequence (P08172 whole entry): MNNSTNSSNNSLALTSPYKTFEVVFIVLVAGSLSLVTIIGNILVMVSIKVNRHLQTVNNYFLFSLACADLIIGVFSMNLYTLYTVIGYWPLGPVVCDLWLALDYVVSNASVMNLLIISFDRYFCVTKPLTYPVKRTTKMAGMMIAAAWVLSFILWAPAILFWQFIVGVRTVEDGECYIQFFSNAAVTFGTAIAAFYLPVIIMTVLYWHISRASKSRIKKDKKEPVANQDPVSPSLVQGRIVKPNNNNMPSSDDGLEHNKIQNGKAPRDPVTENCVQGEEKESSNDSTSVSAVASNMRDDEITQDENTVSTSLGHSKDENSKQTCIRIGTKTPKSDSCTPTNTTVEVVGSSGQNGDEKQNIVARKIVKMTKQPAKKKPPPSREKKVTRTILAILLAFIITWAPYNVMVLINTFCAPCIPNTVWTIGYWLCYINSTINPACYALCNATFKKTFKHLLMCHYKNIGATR
The format is functional, cell-based.

The target of assay [5] is T3, Estrogen receptor (Homo sapiens, UniProt P03372).
T3 sequence (P03372 whole entry): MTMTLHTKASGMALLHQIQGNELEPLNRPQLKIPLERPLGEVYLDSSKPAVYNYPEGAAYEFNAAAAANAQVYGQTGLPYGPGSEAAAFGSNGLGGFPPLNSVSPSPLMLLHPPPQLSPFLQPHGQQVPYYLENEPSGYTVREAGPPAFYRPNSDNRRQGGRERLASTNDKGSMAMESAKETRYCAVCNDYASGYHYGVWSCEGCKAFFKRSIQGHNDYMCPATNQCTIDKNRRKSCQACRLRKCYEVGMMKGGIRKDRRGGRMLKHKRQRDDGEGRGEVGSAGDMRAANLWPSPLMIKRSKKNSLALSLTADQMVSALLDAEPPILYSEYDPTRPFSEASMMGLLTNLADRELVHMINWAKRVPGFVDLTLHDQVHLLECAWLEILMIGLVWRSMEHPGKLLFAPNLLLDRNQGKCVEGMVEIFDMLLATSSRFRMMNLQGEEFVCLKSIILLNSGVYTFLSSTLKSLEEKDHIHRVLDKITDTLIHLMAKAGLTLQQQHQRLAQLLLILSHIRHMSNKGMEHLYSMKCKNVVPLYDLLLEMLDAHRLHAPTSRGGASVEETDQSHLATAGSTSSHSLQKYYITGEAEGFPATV

For assay [6], the target named is T4, Alpha-1A adrenergic receptor (Homo sapiens, UniProt P35348).
T4 sequence (P35348 whole entry): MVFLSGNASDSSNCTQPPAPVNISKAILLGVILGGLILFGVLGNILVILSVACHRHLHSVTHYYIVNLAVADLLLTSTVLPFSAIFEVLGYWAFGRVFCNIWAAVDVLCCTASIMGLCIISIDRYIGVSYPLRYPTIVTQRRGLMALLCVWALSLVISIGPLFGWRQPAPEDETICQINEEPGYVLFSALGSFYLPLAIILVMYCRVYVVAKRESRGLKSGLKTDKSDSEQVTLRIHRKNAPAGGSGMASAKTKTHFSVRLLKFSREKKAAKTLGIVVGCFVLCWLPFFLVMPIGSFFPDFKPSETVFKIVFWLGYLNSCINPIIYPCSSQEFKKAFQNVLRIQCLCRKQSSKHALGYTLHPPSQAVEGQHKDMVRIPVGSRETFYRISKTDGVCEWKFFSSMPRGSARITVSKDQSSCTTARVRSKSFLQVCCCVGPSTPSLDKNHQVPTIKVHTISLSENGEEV
In kind it is functional, cell-based.

Assay [7] concerns the target Mu-type opioid receptor (Homo sapiens, UniProt P35372). In words: biochemical. The format is functional.
Assay [8] deals with 3',5'-cyclic-AMP phosphodiesterase 4D (Homo sapiens, UniProt Q08499). In kind it is functional.
Chain of 3',5'-cyclic-AMP phosphodiesterase 4D (Q08499 whole entry): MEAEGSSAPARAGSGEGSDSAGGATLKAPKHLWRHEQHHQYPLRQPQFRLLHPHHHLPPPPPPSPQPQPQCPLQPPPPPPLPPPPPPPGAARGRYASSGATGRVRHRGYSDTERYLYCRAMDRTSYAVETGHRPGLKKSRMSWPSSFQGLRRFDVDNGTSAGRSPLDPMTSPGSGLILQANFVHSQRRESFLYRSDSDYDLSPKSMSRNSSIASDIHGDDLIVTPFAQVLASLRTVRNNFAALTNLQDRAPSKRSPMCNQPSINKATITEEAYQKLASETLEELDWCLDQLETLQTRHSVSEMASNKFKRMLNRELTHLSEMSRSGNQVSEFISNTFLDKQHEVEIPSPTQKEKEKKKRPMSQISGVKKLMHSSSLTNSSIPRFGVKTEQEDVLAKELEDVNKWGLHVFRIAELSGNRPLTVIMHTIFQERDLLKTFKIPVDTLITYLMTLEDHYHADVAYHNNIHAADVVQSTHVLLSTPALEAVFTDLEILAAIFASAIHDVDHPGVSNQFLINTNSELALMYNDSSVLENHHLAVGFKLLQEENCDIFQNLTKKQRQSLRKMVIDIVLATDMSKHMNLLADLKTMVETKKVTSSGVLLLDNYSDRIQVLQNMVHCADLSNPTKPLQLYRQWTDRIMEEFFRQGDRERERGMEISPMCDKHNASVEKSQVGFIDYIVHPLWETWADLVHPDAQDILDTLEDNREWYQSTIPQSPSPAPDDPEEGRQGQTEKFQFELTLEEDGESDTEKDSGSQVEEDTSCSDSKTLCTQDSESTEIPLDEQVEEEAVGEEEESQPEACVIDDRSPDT
Note: assay procedure not described here.

Chain of Mu-type opioid receptor (P35372 whole entry): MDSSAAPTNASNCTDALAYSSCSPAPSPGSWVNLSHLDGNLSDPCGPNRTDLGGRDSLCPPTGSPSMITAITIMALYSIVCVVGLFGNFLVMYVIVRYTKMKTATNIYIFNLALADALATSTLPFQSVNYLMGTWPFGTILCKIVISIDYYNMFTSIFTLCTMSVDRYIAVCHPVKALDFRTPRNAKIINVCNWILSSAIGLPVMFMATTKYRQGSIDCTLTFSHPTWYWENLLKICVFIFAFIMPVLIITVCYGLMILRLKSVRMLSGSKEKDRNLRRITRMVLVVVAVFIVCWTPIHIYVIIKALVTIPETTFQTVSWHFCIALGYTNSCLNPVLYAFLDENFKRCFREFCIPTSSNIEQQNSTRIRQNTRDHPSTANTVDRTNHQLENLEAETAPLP

Regarding `CCCCCCC(C)(C)c1cc(O)c2c(c1)OC(C)(C)C1CCC(=O)CC21` (configuration not stated) [NABILONE], the AC50 in assay [1], in assay [2], in assay [3], in assay [4], in assay [5] and in assay [6] was more than 30 µM throughout. Moreover, the AC50 in assay [7] and in assay [8] was more than 30 µM throughout.

For the molecule `Cc1ccc(-c2nc3ccc(C)cn3c2CC(=O)N(C)C)cc1` [ZOLPIDEM], the AC50 in assay [1], in assay [2], in assay [3], in assay [4], in assay [5] and in assay [6] was more than 30 µM each time. The AC50 in assay [7] and in assay [8] was more than 30 µM throughout.

As for `O=C(O)Cc1cn(-c2ccccc2)nc1-c1ccc(Cl)cc1` [LONAZOLAC], the concentration at half-maximal activity (AC50) in assay [1], in assay [2], in assay [3], in assay [4], in assay [5] and in assay [6] was more than 30 µM throughout. The AC50 in assay [7] and in assay [8] was more than 30 µM each time.

For the molecule `O=C1CN=C(c2ccccc2)c2cc(Cl)ccc2N1CC(F)(F)F` [HALAZEPAM], the concentration at half-maximal activity (AC50) in assay [1], in assay [2], in assay [3], in assay [4], in assay [5] and in assay [6] was more than 30 µM in each case. The AC50 was 1.2 µM in assay [7] and more than 30 µM in assay [8].

As for `CCCCCN(C)CCC(O)(P(=O)(O)O)P(=O)(O)O` [IBANDRONIC ACID], the concentration at half-maximal activity (AC50) in assay [1] is 1.9 µM; in assay [2] it was more than 30 µM; in assay [3] it was more than 30 µM; in assay [4], more than 30 µM; in assay [5], more than 30 µM; in assay [6], more than 30 µM. Moreover, the AC50 in assay [7] was 8.5 µM; in assay [8], more than 30 µM.

Turning to `CCC(C(=O)O)c1ccc(CC(C)C)cc1` (configuration not stated) [BUTIBUFEN], the AC50 in assay [1], in assay [2], in assay [3], in assay [4], in assay [5] and in assay [6] was more than 30 µM in each case. Besides, the AC50 in assay [7] and in assay [8] was more than 30 µM in each case.

In the case of `CCOc1cc(N)c([N+](=O)[O-])cc1C(=O)NC1CCN(CC2CC=CCC2)CC1` (configuration not stated) [CINITAPRIDE], the AC50 in assay [1] was more than 30 µM; in assay [2], more than 30 µM; in assay [3], 14 µM; in assay [4], more than 30 µM; in assay [5], more than 30 µM; in assay [6], more than 30 µM. The half-maximal activity concentration (AC50) in assay [7] and in assay [8] was more than 30 µM each time.

In the case of `C#C[C@]1(O)CC[C@H]2[C@@H]3CCC4=CCCC[C@@H]4[C@H]3CC[C@@]21C` [LYNESTRENOL], the concentration at half-maximal activity (AC50) in assay [1], in assay [2], in assay [3], in assay [4], in assay [5] and in assay [6] was more than 30 µM each time. For the same molecule, the AC50 in assay [7] and in assay [8] was more than 30 µM throughout.

For the molecule `COc1ccc(C(=O)N2CCN(c3ccc4c(c3)CCC(=O)N4)CC2)cc1OC` [VESNARINONE], the AC50 in assay [1] is 8.46 µM; in assay [2], 8 µM; in assay [3] it was 21 µM; in assay [4], more than 30 µM; in assay [5], more than 30 µM; in assay [6], more than 30 µM. Besides, the half-maximal activity concentration (AC50) in assay [7] and in assay [8] was more than 30 µM in each case.

For `CC(=O)OCC(=O)[C@@]12OC3(CCCC3)O[C@@H]1C[C@H]1[C@@H]3CCC4=CC(=O)C=C[C@]4(C)[C@@]3(F)[C@@H](O)C[C@@]12C` [AMCINONIDE], the half-maximal activity concentration (AC50) in assay [1] was more than 30 µM; in assay [2] it was 0.016 µM; in assay [3], more than 10 µM; in assay [4], more than 10 µM; in assay [5] it was more than 30 µM; in assay [7], more than 30 µM. The molecule further came in with an AC50 in assay [8] of more than 30 µM.

`C1=Cc2cccc(OCC3CNCCO3)c2C1` (configuration not stated) [INDELOXAZINE]: the AC50 in assay [1] is more than 30 µM; in assay [2], more than 30 µM; in assay [3], 0.047 µM; in assay [4] it was more than 30 µM; in assay [5], more than 30 µM; in assay [6], more than 30 µM. In addition, the AC50 in assay [7] and in assay [8] was more than 30 µM in each case.

With `CC1=CC(=O)c2ccccc2C1=O` [MENADIONE], the AC50 in assay [1] was more than 30 µM; in assay [2], more than 30 µM; in assay [3], more than 10 µM; in assay [4], more than 10 µM; in assay [5] it was more than 30 µM; in assay [7], more than 30 µM. This molecule returned an AC50 in assay [8] of more than 30 µM.

`CCCCCOC(=O)Nc1nc(=O)n([C@@H]2O[C@H](C)[C@@H](O)[C@H]2O)cc1F` [CAPECITABINE]: the AC50 in assay [1], in assay [3], in assay [4], in assay [5], in assay [6] and in assay [7] was more than 30 µM each time. In assay [8], this molecule displayed an AC50 of more than 30 µM.

As for `CN1CCCN=C1COC(=O)C(O)(c1ccccc1)C1CCCCC1` (configuration not stated) [OXYPHENCYCLIMINE], the half-maximal activity concentration (AC50) in assay [1] was more than 30 µM; in assay [2], more than 10 µM; in assay [3], more than 30 µM; in assay [4], 0.07 µM; in assay [5], more than 10 µM; in assay [7], more than 30 µM. In addition, the half-maximal activity concentration (AC50) in assay [8] is more than 30 µM.

For the molecule `O=C(CCCCC(=O)Nc1c(I)cc(I)c(C(=O)O)c1I)Nc1c(I)cc(I)c(C(=O)O)c1I` [IODIPAMIDE], the concentration at half-maximal activity (AC50) in assay [1] is more than 30 µM; in assay [2], more than 10 µM; in assay [3] it was more than 10 µM; in assay [4] it was more than 10 µM; in assay [5], more than 10 µM; in assay [7], more than 30 µM. The molecule also gave a concentration at half-maximal activity (AC50) in assay [8] of more than 30 µM.

Regarding `CC(C)[N+](C)(CCC(C(N)=O)(c1ccccc1)c1ccccc1)C(C)C` [ISOPROPAMIDE], the AC50 is more than 30 µM in assay [1]; more than 10 µM in assay [2]; more than 10 µM in assay [3]; 0.01 µM in assay [4]; more than 10 µM in assay [5]; more than 30 µM in assay [7]. The AC50 in assay [8] was more than 30 µM.
